Activity and IC50 data for two compounds are collected here from ChEMBL document CHEMBL2311428, “Binding partners for curcumin in human schwannoma cells: biologic implications” (Bioorg Med Chem, 2013).

Activity calls are given as the source filed them. The rule behind the calls is not given here.

In test [1] the target is Heat shock protein HSP90 (Homo sapiens) (UniProt P07900+P08238). The experiment in a line: Binding affinity to Hsp90 in human HEI-193 cells harboring NF2 mutant at 100 uM after 30 mins by SDS-PAGE analysis. In kind it is cell-based.
Test [2] concerns HEI-193. The experiment in a line: Binding affinity to Hsp70 in human HEI-193 cells harboring NF2 mutant at 100 uM after 30 mins by SDS-PAGE analysis. In kind it is cell-based.
Test [3] addresses Actin, cytoplasmic 1 (Homo sapiens) (UniProt P60709). The test is described as follows: Binding affinity to beta-actin in human HEI-193 cells harboring NF2 mutant at 100 uM after 30 mins by SDS-PAGE analysis. Format: cell-based.
Test [4] in a line: Cytotoxicity against human HEI-193 cells harboring NF2 mutant assessed as growth inhibition after 72 hrs by MTT assay. Format: functional, cell-based. As to conditions: HEI-193, 72 h. For orientation: Tetrazolium dyes change colour on reduction, which living cells bring about.
Test [5] addresses T1, D-3-phosphoglycerate dehydrogenase (Homo sapiens) (UniProt O43175).
T1 sequence (whole entry): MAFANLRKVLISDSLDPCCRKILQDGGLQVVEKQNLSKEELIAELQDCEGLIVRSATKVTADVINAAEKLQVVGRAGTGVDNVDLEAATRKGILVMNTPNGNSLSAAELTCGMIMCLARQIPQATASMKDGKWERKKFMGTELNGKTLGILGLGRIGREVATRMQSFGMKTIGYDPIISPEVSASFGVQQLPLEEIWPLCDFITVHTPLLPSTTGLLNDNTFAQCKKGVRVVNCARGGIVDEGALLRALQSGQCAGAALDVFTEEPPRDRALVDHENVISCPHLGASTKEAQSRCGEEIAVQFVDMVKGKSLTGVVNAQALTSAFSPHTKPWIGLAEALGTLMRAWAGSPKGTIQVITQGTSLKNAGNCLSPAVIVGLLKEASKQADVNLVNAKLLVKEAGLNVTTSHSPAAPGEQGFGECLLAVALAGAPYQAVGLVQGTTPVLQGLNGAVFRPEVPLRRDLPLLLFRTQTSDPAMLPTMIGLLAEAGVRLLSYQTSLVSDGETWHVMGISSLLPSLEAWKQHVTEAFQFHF
The experiment in a line: Binding affinity to 3-PGDH in human HEI-193 cells harboring NF2 mutant at 100 uM after 30 mins by SDS-PAGE analysis. Format: cell-based.

Test [6] in a line: Downregulation of Hsp27 expression in human keratinocytes at 10 uM. Format: functional, cell-based. The settings on record: Keratinocyte.

For the compound `COc1cc(/C=C/C(=O)CC(=O)/C=C/c2ccc(OC(=O)CCCC(=O)NCCCOCCOCCOCCCNC(=O)CCCC[C@@H]3SC[C@@H]4NC(=O)N[C@@H]43)c(OC)c2)ccc1O`, the result in test [1], in test [2], in test [3] and in test [5] was Active. For the same compound, the concentration for half-maximal inhibition (IC50) (as a rule, the midpoint of a concentration-inhibition curve) in test [4] is 36 µM.
For the compound `COc1cc(/C=C/C(=O)CC(=O)/C=C/c2ccc(O)c(OC)c2)ccc1O` [CURCUMIN], the half-maximal inhibitory concentration (IC50) in test [4] was 18 µM. Further, the Activity in test [6] stood at 34%.
